PubChem BioAssay (NCI)
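A five-concentration, 48-hour dose response in 96-well plates underlies each endpoint, interpolated linearly between surrounding concentrations. TGI: concentration producing complete growth inhibition.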

Tests used:
Assay in all cases: NCI anticancer screen, dose series, 48 h
NCI-H23 lung = test system: NCI-H23 lung
A498 renal = test system: A498 renal
OVCAR-5 ovarian = test system: OVCAR-5 ovarian
RXF 393 renal = test system: RXF 393 renal
UACC-62 melanoma = test system: UACC-62 melanoma
SK-OV-3 ovarian = test system: SK-OV-3 ovarian
SF-268 CNS = test system: SF-268 CNS
COLO 205 colon = test system: COLO 205 colon
TK-10 renal = test system: TK-10 renal
SF-539 CNS = test system: SF-539 CNS
MOLT-4 leukemia = test system: MOLT-4 leukemia
MALME-3M melanoma = test system: MALME-3M melanoma
NCI-H226 lung = test system: NCI-H226 lung
HS 578T breast = test system: HS 578T breast

N#Cc1ccccc1NC(=O)C(O)C(O)C(O)C(O)C=O (configuration not stated)
TGI (NCI-H23 lung): > 100 µM | TGI (A498 renal): > 100 µM | TGI (OVCAR-5 ovarian): > 100 µM | TGI (RXF 393 renal): > 100 µM | TGI (UACC-62 melanoma): > 100 µM | TGI (SK-OV-3 ovarian): > 100 µM | TGI (SF-268 CNS): > 100 µM | TGI (COLO 205 colon): > 100 µM | TGI (TK-10 renal): > 100 µM | TGI (SF-539 CNS): > 100 µM | TGI (MOLT-4 leukemia): > 100 µM | TGI (MALME-3M melanoma): > 100 µM | TGI (NCI-H226 lung): > 100 µM | TGI (HS 578T breast): > 100 µM

COc1ccc(-n2c(C)nc3ccc(NC4OCC(OC(C)=O)C(OC(C)=O)C4OC(C)=O)cc3c2=O)cc1 (configuration not stated)
TGI (NCI-H23 lung): > 100 µM | TGI (A498 renal): > 100 µM | TGI (OVCAR-5 ovarian): > 100 µM | TGI (RXF 393 renal): > 100 µM | TGI (UACC-62 melanoma): > 100 µM | TGI (SF-268 CNS): > 100 µM | TGI (COLO 205 colon): > 100 µM | TGI (TK-10 renal): > 100 µM | TGI (MOLT-4 leukemia): > 100 µM | TGI (MALME-3M melanoma): > 100 µM | TGI (NCI-H226 lung): > 100 µM | TGI (HS 578T breast): > 100 µM

COC(=O)/C=C1\C(=O)Nc2ccc(Br)cc21
TGI (NCI-H23 lung): 3.52 µM | TGI (A498 renal): 11.6 µM | TGI (OVCAR-5 ovarian): 3.17 µM | TGI (RXF 393 renal): 3.27 µM | TGI (UACC-62 melanoma): 3.2 µM | TGI (SK-OV-3 ovarian): 10.1 µM | TGI (SF-268 CNS): 13.8 µM | TGI (COLO 205 colon): 3.45 µM | TGI (TK-10 renal): 3.09 µM | TGI (MOLT-4 leukemia): 4.01 µM | TGI (MALME-3M melanoma): 7.75 µM | TGI (NCI-H226 lung): 4.03 µM | TGI (HS 578T breast): > 34.4 µM

CC(Oc1ccc(Cl)cc1Cl)C(=O)NN1C(=O)CC(=O)NC1=S (configuration not stated)
TGI (NCI-H23 lung): > 100 µM | TGI (A498 renal): > 100 µM | TGI (OVCAR-5 ovarian): > 100 µM | TGI (RXF 393 renal): > 100 µM | TGI (UACC-62 melanoma): > 100 µM | TGI (SK-OV-3 ovarian): > 100 µM | TGI (SF-268 CNS): > 100 µM | TGI (COLO 205 colon): > 100 µM | TGI (TK-10 renal): > 100 µM | TGI (SF-539 CNS): > 100 µM | TGI (MALME-3M melanoma): > 100 µM | TGI (NCI-H226 lung): > 100 µM | TGI (HS 578T breast): > 100 µM

c1ccc(CSCCC(SCc2ccccc2)SCc2ccccc2)cc1
TGI (NCI-H23 lung): > 10 µM | TGI (A498 renal): > 10 µM | TGI (RXF 393 renal): > 10 µM | TGI (UACC-62 melanoma): > 10 µM | TGI (SK-OV-3 ovarian): > 10 µM | TGI (SF-268 CNS): > 10 µM | TGI (COLO 205 colon): > 10 µM | TGI (TK-10 renal): > 10 µM | TGI (SF-539 CNS): > 10 µM | TGI (MOLT-4 leukemia): > 10 µM | TGI (MALME-3M melanoma): > 10 µM | TGI (NCI-H226 lung): > 10 µM | TGI (HS 578T breast): > 10 µM

Clc1nc(NC23CC4CC(CC(C4)C2)C3)nc(NC23CC4CC(CC(C4)C2)C3)n1
TGI (NCI-H23 lung): > 100 µM | TGI (A498 renal): > 100 µM | TGI (OVCAR-5 ovarian): > 100 µM | TGI (RXF 393 renal): > 80.2 µM | TGI (UACC-62 melanoma): > 100 µM | TGI (SK-OV-3 ovarian): > 100 µM | TGI (SF-268 CNS): > 100 µM | TGI (COLO 205 colon): > 100 µM | TGI (TK-10 renal): > 100 µM | TGI (SF-539 CNS): > 100 µM | TGI (MOLT-4 leukemia): > 100 µM | TGI (MALME-3M melanoma): > 100 µM | TGI (NCI-H226 lung): > 100 µM | TGI (HS 578T breast): > 100 µM

COc1ccc(/C=C2\CC3C4CC=C5C[C@@H](N6CCCC6)CC[C@]5(C)C4CC[C@]3(C)[C@H]2O)cc1OC (some centres not stated)
TGI (NCI-H23 lung): 17.6 µM | TGI (A498 renal): 17 µM | TGI (OVCAR-5 ovarian): 19 µM | TGI (RXF 393 renal): 25.2 µM | TGI (UACC-62 melanoma): 16 µM | TGI (SK-OV-3 ovarian): 17.5 µM | TGI (SF-268 CNS): 22.4 µM | TGI (COLO 205 colon): 15.8 µM | TGI (TK-10 renal): 19.9 µM | TGI (SF-539 CNS): 15.1 µM | TGI (MOLT-4 leukemia): 38.3 µM | TGI (MALME-3M melanoma): 16.7 µM | TGI (NCI-H226 lung): 20.2 µM | TGI (HS 578T breast): 26.9 µM

COc1ccc(-c2c(C#N)c(N)nc(Sc3ccccc3N)c2C#N)cc1
TGI (NCI-H23 lung): > 100 µM | TGI (A498 renal): 19.6 µM | TGI (OVCAR-5 ovarian): > 100 µM | TGI (RXF 393 renal): 30.1 µM | TGI (UACC-62 melanoma): > 44.5 µM | TGI (SK-OV-3 ovarian): 32.6 µM | TGI (SF-268 CNS): 28.1 µM | TGI (COLO 205 colon): > 100 µM | TGI (TK-10 renal): 46 µM | TGI (SF-539 CNS): 56.9 µM | TGI (MOLT-4 leukemia): > 100 µM | TGI (MALME-3M melanoma): 42.4 µM | TGI (NCI-H226 lung): > 100 µM | TGI (HS 578T breast): 45.3 µM

CC(=O)/C=C1/C(=O)C(CC(C)C)=C1CC(C)C
TGI (NCI-H23 lung): > 100 µM | TGI (A498 renal): > 100 µM | TGI (OVCAR-5 ovarian): > 100 µM | TGI (RXF 393 renal): > 100 µM | TGI (UACC-62 melanoma): > 100 µM | TGI (SK-OV-3 ovarian): > 100 µM | TGI (SF-268 CNS): > 100 µM | TGI (COLO 205 colon): > 100 µM | TGI (TK-10 renal): > 100 µM | TGI (SF-539 CNS): > 100 µM | TGI (MOLT-4 leukemia): > 100 µM | TGI (MALME-3M melanoma): > 100 µM | TGI (NCI-H226 lung): > 100 µM | TGI (HS 578T breast): > 100 µM

COC(=O)c1ccc(C)cc1C1CN=NC12Cc1c(C)cccc1C2=O (configuration not stated)
TGI (NCI-H23 lung): > 100 µM | TGI (A498 renal): > 100 µM | TGI (OVCAR-5 ovarian): > 100 µM | TGI (RXF 393 renal): > 100 µM | TGI (UACC-62 melanoma): > 68.7 µM | TGI (SK-OV-3 ovarian): > 93.4 µM | TGI (SF-268 CNS): > 100 µM | TGI (COLO 205 colon): 42.8 µM | TGI (TK-10 renal): > 100 µM | TGI (SF-539 CNS): > 100 µM | TGI (MOLT-4 leukemia): > 69.6 µM | TGI (MALME-3M melanoma): > 90.3 µM | TGI (NCI-H226 lung): > 90.8 µM | TGI (HS 578T breast): > 100 µM

COc1ccc2c(c1)C1Oc3ccccc3CC1CO2 (configuration not stated)
TGI (NCI-H23 lung): > 100 µM | TGI (A498 renal): 96.2 µM | TGI (OVCAR-5 ovarian): > 100 µM | TGI (RXF 393 renal): 88.9 µM | TGI (UACC-62 melanoma): > 100 µM | TGI (SK-OV-3 ovarian): > 100 µM | TGI (SF-268 CNS): > 100 µM | TGI (COLO 205 colon): > 100 µM | TGI (TK-10 renal): > 100 µM | TGI (SF-539 CNS): > 100 µM | TGI (MOLT-4 leukemia): 52.9 µM | TGI (MALME-3M melanoma): > 100 µM | TGI (NCI-H226 lung): > 100 µM | TGI (HS 578T breast): > 100 µM

CC1=CC(=O)c2ccc3c4ccccc4n(C)c3c2C1=O
TGI (NCI-H23 lung): > 92 µM | TGI (A498 renal): > 100 µM | TGI (OVCAR-5 ovarian): > 100 µM | TGI (RXF 393 renal): > 100 µM | TGI (SK-OV-3 ovarian): > 100 µM | TGI (SF-268 CNS): > 100 µM | TGI (COLO 205 colon): > 100 µM | TGI (TK-10 renal): > 100 µM | TGI (SF-539 CNS): > 100 µM | TGI (MOLT-4 leukemia): > 72.8 µM | TGI (MALME-3M melanoma): 30 µM | TGI (NCI-H226 lung): > 100 µM | TGI (HS 578T breast): > 100 µM

NC(N)=N/N=C/c1c(Cl)nc2n1CCS2
TGI (NCI-H23 lung): > 100 µM | TGI (A498 renal): > 100 µM | TGI (OVCAR-5 ovarian): > 100 µM | TGI (RXF 393 renal): > 100 µM | TGI (UACC-62 melanoma): > 100 µM | TGI (SK-OV-3 ovarian): > 100 µM | TGI (SF-268 CNS): > 100 µM | TGI (COLO 205 colon): > 100 µM | TGI (TK-10 renal): > 100 µM | TGI (SF-539 CNS): > 100 µM | TGI (MOLT-4 leukemia): > 100 µM | TGI (MALME-3M melanoma): > 100 µM | TGI (NCI-H226 lung): > 100 µM | TGI (HS 578T breast): > 100 µM

COP(=O)(OC)[C@@](O)(c1ccccc1)[C@@H](O)[C@@H](O)c1ccccc1
TGI (NCI-H23 lung): > 100 µM | TGI (A498 renal): > 100 µM | TGI (OVCAR-5 ovarian): > 100 µM | TGI (RXF 393 renal): > 100 µM | TGI (UACC-62 melanoma): > 100 µM | TGI (SK-OV-3 ovarian): > 100 µM | TGI (SF-268 CNS): > 100 µM | TGI (COLO 205 colon): > 100 µM | TGI (TK-10 renal): > 100 µM | TGI (SF-539 CNS): > 100 µM | TGI (MALME-3M melanoma): > 100 µM | TGI (NCI-H226 lung): > 100 µM | TGI (HS 578T breast): > 100 µM

CCSc1c2cc(OC)ccc2nc2ccc(OC)cc12
TGI (NCI-H23 lung): > 86.1 µM | TGI (A498 renal): 30 µM | TGI (OVCAR-5 ovarian): 78.4 µM | TGI (RXF 393 renal): 63 µM | TGI (UACC-62 melanoma): 47.8 µM | TGI (SK-OV-3 ovarian): > 92.5 µM | TGI (SF-268 CNS): > 58.6 µM | TGI (COLO 205 colon): > 45.3 µM | TGI (TK-10 renal): > 43.7 µM | TGI (SF-539 CNS): > 100 µM | TGI (MOLT-4 leukemia): > 34.5 µM | TGI (MALME-3M melanoma): 28.7 µM | TGI (NCI-H226 lung): 40.1 µM | TGI (HS 578T breast): > 100 µM

O=C(Cn1c(C(=O)/C=C/c2ccc(Cl)c(Cl)c2)nc2ccccc21)c1ccccc1
TGI (NCI-H23 lung): > 100 µM | TGI (A498 renal): 67.4 µM | TGI (OVCAR-5 ovarian): 50.2 µM | TGI (RXF 393 renal): 57.2 µM | TGI (UACC-62 melanoma): > 100 µM | TGI (SK-OV-3 ovarian): > 100 µM | TGI (SF-268 CNS): > 100 µM | TGI (COLO 205 colon): 36.2 µM | TGI (TK-10 renal): 76.6 µM | TGI (SF-539 CNS): 48.2 µM | TGI (MOLT-4 leukemia): > 100 µM | TGI (MALME-3M melanoma): 86.2 µM | TGI (NCI-H226 lung): > 100 µM | TGI (HS 578T breast): 56.1 µM
